Measurements from ChEMBL document CHEMBL2424645, “Phosphorylated ganciclovir derivatives: design, synthesis and in vitro and in vivo immunomodulatory activity” (Med Chem Res, 2013).
Calls of active or inactive are those of the source. No cut-off for these calls is given here.

What was measured:
Rattus norvegicus [1] = test: Immunomodulatory activity in high fat diet-induced obese Wistar albino rat impaired immune model assessed as CRP level at 8 mg/kg, po after 8 weeks by ELISA relative to high fat-diet fed rat with immune dysfunction; assay type: functional
Neutrophil [2] = test: Immunomodulatory activity in human neutrophils assessed as increase in intracellular killing activity at 1000 ug/mL after 20 mins by NBT dye reduction assay relative to control; assay type: functional; parameters: scale not given: the % may be the effect or the level left
Neutrophil [3] = test: Immunomodulatory activity in human neutrophils assessed as increase in intracellular killing activity at 100 ug/mL after 20 mins by NBT dye reduction assay relative to control; assay type: functional; parameters: scale not given: the % may be the effect or the level left
Rattus norvegicus [4] = test: Immunomodulatory activity in high fat diet-induced obese Wistar albino rat impaired immune model assessed as IL-1 level at 8 mg/kg, po after 8 weeks by ELISA relative to relative to high fat-diet fed rat with immune dysfunction; assay type: functional
Rattus norvegicus [5] = test: Immunomodulatory activity in high fat diet-induced obese Wistar albino rat impaired immune model assessed as TNF-alpha level at 8 mg/kg, po after 8 weeks by ELISA relative to vehicle-treated control; assay type: functional
Neutrophil [6] = test: Immunomodulatory activity in human neutrophils assessed as increase in intracellular killing activity at 10 ug/mL after 20 mins by NBT dye reduction assay relative to control; assay type: functional; parameters: scale not given: the % may be the effect or the level left
Neutrophil [7] = test: Immunomodulatory activity in human neutrophils assessed as increase in intracellular killing activity at 40 ug/mL after 20 mins by NBT dye reduction assay relative to control; assay type: functional; parameters: scale not given: the % may be the effect or the level left
Neutrophil [8] = test: Immunomodulatory activity in human neutrophils assessed as increase in intracellular killing activity at 20 ug/mL after 20 mins by NBT dye reduction assay relative to control; assay type: functional; parameters: scale not given: the % may be the effect or the level left
Rattus norvegicus [9] = test: Immunomodulatory activity in high fat diet-induced obese Wistar albino rat impaired immune model assessed as IL-6 level at 8 mg/kg, po after 8 weeks by ELISA relative to vehicle-treated control; assay type: functional
[10] = Toxicity in Wistar albino rat; assay type: organism-based; conditions: in vivo
Rattus norvegicus [11] = test: Immunomodulatory activity in high fat diet-induced obese Wistar albino rat impaired immune model assessed as decrease in total neutrophils count at 8 mg/kg, po after 8 weeks by hematology analyser relative to control; assay type: functional, organism-based; parameters: dose 8 mg/kg
Rattus norvegicus [12] = test: Immunomodulatory activity in high fat diet-induced obese Wistar albino rat impaired immune model assessed as decrease in total lymphocytes count at 8 mg/kg, po after 8 weeks by hematology analyser relative to control; assay type: functional, organism-based; parameters: dose 8 mg/kg
Rattus norvegicus [13] = test: Immunomodulatory activity in high fat diet-induced obese Wistar albino rat impaired immune model assessed as decrease in total monocytes count at 8 mg/kg, po after 8 weeks by hematology analyser relative to control; assay type: functional, organism-based; parameters: dose 8 mg/kg

SMILES | Activity (Rattus norvegicus [1]) | Activity (Neutrophil [2]) [%] | Activity (Neutrophil [3]) [%] | Activity (Rattus norvegicus [4]) | Activity (Rattus norvegicus [5]) | Activity (Neutrophil [6]) [%] | Activity (Neutrophil [7]) [%] | Activity (Neutrophil [8]) [%] | Activity (Rattus norvegicus [9]) | LD50 [10] [mg/kg] | Activity (Rattus norvegicus [11]) | Activity (Rattus norvegicus [12]) | Activity (Rattus norvegicus [13])
CCC(CO)NCP1(=O)OCC(OCn2cnc3c(=O)[nH]c(N)nc32)CO1 (stereo not given) | inactive | 54.32 | 53.98 | inactive | inactive | 31.37 | 46.76 | 43.15 | inactive | 80 |  |  | 
CCOC(=O)C(CC(C)C)NCP1(=O)OCC(OCn2cnc3c(=O)[nH]c(N)nc32)CO1 (stereo not given) | inactive | 58.03 | 51.44 |  |  | 39.17 | 49.31 | 40.92 |  | 80 |  |  | 
NCCNCP1(=O)OCC(OCn2cnc3c(=O)[nH]c(N)nc32)CO1 (stereo not given) | inactive | 50.46 | 47.3 | inactive | inactive | 40.12 | 45.35 | 42.51 | inactive | 80 |  |  | 
NCCSCP1(=O)OCC(OCn2cnc3c(=O)[nH]c(N)nc32)CO1 (stereo not given) | inactive | 57.91 | 50.36 | inactive | inactive | 33.77 | 49.32 | 45.64 | inactive | 80 |  |  | 
CCOC(=O)C(N)CSCP1(=O)OCC(OCn2cnc3c(=O)[nH]c(N)nc32)CO1 (stereo not given) | 21.9 ng/mL | 66.82 | 60.16 | 122.9 pg/mL | 36.5 pg/mL | 45.03 | 58.04 | 56.34 | 5.2 pg/mL | 80 | Active | Active | Active
CCOC(=O)C(NCP1(=O)OCC(OCn2cnc3c(=O)[nH]c(N)nc32)CO1)c1ccc(O)cc1 (stereo not given) | inactive | 62.25 | 52.31 |  |  | 39.58 | 49.49 | 42.46 |  | 80 |  |  | 
Nc1nc2c(ncn2COC2COP(=O)(CSCCO)OC2)c(=O)[nH]1 (stereo not given) | inactive | 55.35 | 52.15 | inactive | inactive | 32.25 | 47.93 | 43.73 | inactive | 80 |  |  | 
CCOC(=O)C(NCP1(=O)OCC(OCn2cnc3c(=O)[nH]c(N)nc32)CO1)c1ccccc1 (stereo not given) | inactive | 60.32 | 52.91 |  |  | 40.62 | 46.63 | 43.11 |  | 80 |  |  | 
Nc1nc2c(ncn2COC2COP(=O)(COCCO)OC2)c(=O)[nH]1 (stereo not given) | inactive | 53.02 | 51.23 | inactive | inactive | 34.31 | 49.85 | 46.44 | inactive | 80 |  |  | 
Nc1nc2c(ncn2COC(CO)CO)c(=O)[nH]1 [GANCICLOVIR] |  | 60.11 | 58.23 |  |  | 39.43 | 55.89 | 53.21 |  | 80 |  |  | 
Nc1nc2c(ncn2COC2COP(=O)(CNCCO)OC2)c(=O)[nH]1 (stereo not given) | inactive | 55.25 | 50.57 | inactive | inactive | 33.38 | 48.54 | 45.98 | inactive | 80 |  |  | 
CCOC(=O)C(CO)NCP1(=O)OCC(OCn2cnc3c(=O)[nH]c(N)nc32)CO1 (stereo not given) | inactive | 56.02 | 53.09 |  |  | 39.8 | 48.11 | 39.92 |  | 80 |  |  | 
COC(=O)C(NCP1(=O)OCC(OCn2cnc3c(=O)[nH]c(N)nc32)CO1)C(C)C (stereo not given) | 22.3 ng/mL | 65.14 | 62.45 | 123.6 pg/mL | 37.1 pg/mL | 41.18 | 60.83 | 55.09 | 5.4 pg/mL | 80 | Active | Active | Active
